{"source": "patent US9096599B2", "about": "“Spiroindoline compounds” (Intervet Inc., priority 2011, dated 2015)"}
{"tested_on": "Ascaridia galli (L3) and Oesophagostumum dentatum (L3 and L4) larvae", "test": "In vitro anthelmintic larval test, minimum effective concentration by microscopic examination", "type": "cell-based", "settings": "activity against one or both of the nematodes (A. galli L3; O. dentatum L3, L4), 96-well plates, 20 larvae per well, vs DMSO-control, read-out: minimum effective concentration (MEC)", "protocol": "C: Biological Examples Efficacy Against Ascaridia galli and Oesophagostomum dentatum\nAnthelmintic effects of compounds of this invention (numbers refer to compound numbers in Table I) were tested in vitro using gut-welling larval stages of two parasitic nematode species: Ascaridia galli (intestinal roundworm of chicken), larval stage 3 (“L3”); and Oesophagostumum dentatum (nodular worm of swine), larval stages 3 and 4 (respectively “L3” and “L4”). When conducting these experiments, DMSO-solutions of various concentrations of compounds of this invention were prepared and incubated in 96-well microtiter plates. The parasites were then distributed at 20 larvae per well. The anthelmintic effects were classified by microscopic examination. The microscopic examination included assessing mortality, damage, motility, progression of development, and neutral red uptake by the larvae in comparison to a DMSO-control.", "units": {"minimal effective concentration": "µM"}}
{"compound": "Cc1cc(C(=O)N2CC3(CCN(C/C=C/c4ccc(F)cc4)CC3)c3cc(Sc4ccc(F)cc4)ccc32)ccn1", "note": "[Compound 37, [1′-[(E)-3-(4-fluorophenyl)allyl]-5-(4-fluorophenyl)sulfanyl-spiro[indoline-3,4′-piperidine]-1-yl]-(2-methyl-4-pyridyl)methanone]", "minimal effective concentration": "≤ 50"}
{"compound": "O=C(c1ccnc(Cl)c1)N1CC2(CCN(C/C=C/c3ccc(F)cc3F)CC2)c2cc(Sc3ccc(F)cc3)ccc21", "note": "[Compound 38, (2-chloro-4-pyridyl)-[1′-[(E)-3-(2,4-difluorophenyl)allyl]-5-(4-fluorophenyl)sulfanyl-spiro[indoline-3,4′-piperidine]-1-yl]methanone]", "minimal effective concentration": "≤ 50"}
{"compound": "Cc1cc(C(=O)N2CC3(CCN(C/C=C/c4ccc(F)cc4F)CC3)c3cc(Sc4ccc(F)cc4)ccc32)cc(Cl)n1", "note": "[Compound 39, (2-chloro-6-methyl-4-pyridyl)-[1′-[(E)-3-(2,4-difluorophenyl)allyl]-5-(4-fluorophenyl)sulfanyl-spiro[indoline-3,4′-piperidine]-1-yl]methanone]", "minimal effective concentration": "≤ 50"}
{"compound": "Cc1cc(C(=O)N2CC3(CCN(C/C=C/c4ccc(F)cc4F)CC3)c3cc(Sc4ccc(F)cc4)ccc32)ccn1", "note": "[Compound 40, [1′-[(E)-3-(2,4-difluorophenyl)allyl]-5-(4-fluorophenyl)sulfanyl-spiro[indoline-3,4′-piperidine]-1-yl]-(2-methyl-4-pyridyl)methanone]", "minimal effective concentration": "≤ 50"}
